Source: paper PMC6341602, “Cytosolic group IVA phospholipase A2 inhibitors, AVX001 and AVX002, ameliorate collagen-induced arthritis” (Arthritis Research & Therapy, 2019)

Target: T1, GIVA cPLA2 (cPLA2α) (Homo sapiens, UniProt P47712)
T1 construct: gene PLA2G4A
T1 sequence (P47712 1-749): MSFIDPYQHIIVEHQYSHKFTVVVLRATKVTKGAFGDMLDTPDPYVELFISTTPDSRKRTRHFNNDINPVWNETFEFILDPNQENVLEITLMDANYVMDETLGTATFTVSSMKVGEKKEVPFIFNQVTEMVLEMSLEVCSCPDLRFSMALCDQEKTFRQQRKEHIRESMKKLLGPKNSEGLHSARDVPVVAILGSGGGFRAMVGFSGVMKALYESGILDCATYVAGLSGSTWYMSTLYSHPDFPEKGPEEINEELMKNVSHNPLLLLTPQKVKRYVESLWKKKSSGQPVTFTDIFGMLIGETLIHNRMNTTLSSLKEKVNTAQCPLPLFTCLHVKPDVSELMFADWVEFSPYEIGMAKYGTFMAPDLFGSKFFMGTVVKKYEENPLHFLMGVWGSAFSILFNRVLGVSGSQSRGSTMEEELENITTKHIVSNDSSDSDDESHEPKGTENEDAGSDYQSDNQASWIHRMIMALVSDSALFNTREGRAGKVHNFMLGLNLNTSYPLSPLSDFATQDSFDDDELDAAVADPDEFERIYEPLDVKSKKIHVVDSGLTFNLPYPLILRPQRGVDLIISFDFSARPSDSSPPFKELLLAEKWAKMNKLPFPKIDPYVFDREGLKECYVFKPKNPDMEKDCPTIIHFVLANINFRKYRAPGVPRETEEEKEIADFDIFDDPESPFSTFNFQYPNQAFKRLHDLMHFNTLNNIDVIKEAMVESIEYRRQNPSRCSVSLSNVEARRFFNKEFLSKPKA
Test: in vitro mixed micelle modified Dole assay ([…]-PAPC)
Assay type: biochemical

Compound | In vitro enzyme activity / GIVA cPLA2 / XI(50)
CC/C=C\C/C=C\C/C=C\C/C=C\CC/C=C/CSCC(=O)C(F)(F)F [AVX001, (6E,10Z,13Z,16Z,19Z)-1,1,1-trifluoro-4-thiadocosa-6,10,13,16,19-pentaen-2-one] | 0.0072 ± 0.0007 mole fraction (XI(50))
CC/C=C\C/C=C\C/C=C\C/C=C\C/C=C\CCSCC(=O)C(F)(F)F [AVX002, 1,1,1-trifluoro-3-(((3Z,6Z,9Z,12Z,15Z)-octadeca-3,6,9,12,15-pentaen-1-yl)thio)propan-2-one] | 0.0057 ± 0.001 mole fraction (XI(50))
